EP3046573B1, “AMYLIN ANALOGUES” (Zealand Pharma A/S, priority 2013, dated 2015)
Numbered stars: 1 amine (or outer) side, 2 acyl side, 3 side chain; on linkers, the order of the positions; unused ones are H or OH. Bridge positions count the residues as written; N and C are the ends. Square brackets hold non-standard residues; d marks the D form. Peptide text beside a SMILES is read from it. * marks the point of attachment. C20 diacid = O=C(O)CCCCCCCCCCCCCCCCCCC(=O)*; γGlu = O=C(O)[C@H](CCC(=O)[*:2])N[*:1]; NMeI = CC[C@H](C)[C@H](NC)C(=O)O; Sar = CNCC(=O)O

Legend:
[1] = biological target: T1, human amylin receptor 3 (hAMYR3) consisting of hCTR2 co-expressed with human Receptor Activity Modifying Protein 3 (hRAMP3) (Homo sapiens, UniProt O60896+P30988); experiment: hAMYR3 assay: induction of cAMP (AlphaScreen cAMP Assay kit) in COS7 cells expressing hAMYR3; assay type: cell-based; conditions: cAMP induction in COS7 cells expressing hAMYR3; average of a minimum of 3 determinations; read-out: hAMY R3 EC50
T1 construct: expressed in transfected cells
T1 sequence (P30988 25-474): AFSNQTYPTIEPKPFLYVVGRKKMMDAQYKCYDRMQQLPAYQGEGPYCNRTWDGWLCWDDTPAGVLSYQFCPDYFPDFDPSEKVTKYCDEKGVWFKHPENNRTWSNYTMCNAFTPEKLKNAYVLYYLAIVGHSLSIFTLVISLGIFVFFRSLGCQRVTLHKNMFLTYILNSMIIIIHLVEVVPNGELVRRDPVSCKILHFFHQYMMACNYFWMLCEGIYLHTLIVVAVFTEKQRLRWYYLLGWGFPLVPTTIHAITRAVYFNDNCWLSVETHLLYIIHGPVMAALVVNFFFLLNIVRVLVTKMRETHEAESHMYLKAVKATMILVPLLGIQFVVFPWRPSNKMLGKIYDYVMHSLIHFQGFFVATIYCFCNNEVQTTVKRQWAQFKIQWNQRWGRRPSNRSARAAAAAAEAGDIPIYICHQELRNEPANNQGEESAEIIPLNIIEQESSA
T1 sequence (O60896 24-148 partner): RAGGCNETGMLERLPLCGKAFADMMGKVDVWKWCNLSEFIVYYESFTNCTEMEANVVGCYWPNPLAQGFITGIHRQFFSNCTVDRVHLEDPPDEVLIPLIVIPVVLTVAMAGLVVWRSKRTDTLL
Outline: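 Stable COS7 clone co-expressing hCTR2 and hRAMP3, stimulated 15 min at 37° C with increasing peptide in Tyrode buffer pH 7.4 with 100 µM IBMX and 0.1% casein. cAMP measured by AlphaScreen after lysis; EC50 and % efficacy versus pramlintide from 4PL fit.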

[2] = Solubility assessment (turbidity absorbance at 325 nm); assay type: physicochemical; conditions: stock 2 mg/ml diluted 1:1, ambient temperature (typically 25°C), n=1; for Solubility, Acetate buffer pH 4: 100 mM acetate buffer pH 4.0; for Solubility, Acetate buffer pH 5: 100 mM acetate buffer pH 5.0; for Solubility, Histidine buffer pH 6: 100 mM histidine buffer pH 6.0; for Solubility, Histidine buffer pH 7: 100 mM histidine buffer pH 7.0; for Solubility, Phosphate buffer pH 6: 100 mM phosphate buffer pH 6.0; for Solubility, Phosphate buffer pH 7: 100 mM phosphate buffer pH 7.0; for Solubility, Phosphate buffer pH 7.5: 100 mM phosphate buffer pH7.5
Outline: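 Stock 2 mg/ml peptide, H2O/HCl pH 2.5; 1:1 into 100 mM buffers: acetate pH 4.0/5.0, His pH 6.0/7.0, phosphate pH 6.0/7.0/7.5. A280 + A325, ~25°C, n=1. Soluble ≥ 1 mg/ml if A325 ≤ 0.02.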

[3] = biological target: T2, human calcitonin receptor (hCTR2) (Homo sapiens, UniProt P30988); experiment: hCTR2 assay: induction of cAMP (AlphaScreen cAMP Assay kit) in COS7 cells expressing hCTR2; assay type: cell-based; conditions: cAMP induction in COS7 cells expressing hCTR2; average of a minimum of 3 determinations; read-out: hCTR2 EC50
T2 construct: expressed in transfected cells
T2 sequence (P30988 25-474): T1 sequence (P30988 25-474)
Outline: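 Functional agonism is measured as cAMP accumulation in a COS7 line stably transfected with hCTR2, lacking endogenous RAMPs. Peptides act for 15 min at 37° C with IBMX present, and curves are fitted with a 4-parameter logistic model.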

EC50 [1] [nM] | Solubility, Acetate buffer pH 4 [2] | Solubility, Acetate buffer pH 5 [2] | Solubility, Histidine buffer pH 6 [2] | Solubility, Histidine buffer pH 7 [2] | Solubility, Phosphate buffer pH 6 [2] | Solubility, Phosphate buffer pH 7 [2] | Solubility, Phosphate buffer pH 7.5 [2] | EC50 [3] [nM] | Structure (SMILES)
0.61 | SS (SS indicates solubility ≥ 1mg/ml) | SS (SS indicates solubility ≥ 1mg/ml) | SS (SS indicates solubility ≥ 1mg/ml) | SS (SS indicates solubility ≥ 1mg/ml) | SS (SS indicates solubility ≥ 1mg/ml) | SS (SS indicates solubility ≥ 1mg/ml) | SS (SS indicates solubility ≥ 1mg/ml) | 0.76 | CC[C@H](C)[C@@H](C(=O)N[C@@H](CC(C)C)C(=O)N[C@@H](CO)C(=O)N[C@@H](CO)C(=O)N[C@H](C(=O)N[C@@H](CCC(=O)O)C(=O)N[C@H](C(=O)NCC(=O)N[C@@H](CO)C(=O)N[C@@H](CCC(=O)O)C(=O)N[C@H](C(=O)N1CCC[C@H]1C(N)=O)[C@@H](C)O)C(C)C)[C@@H](C)O)N(C)C(=O)[C@H](C)NC(=O)CN(C)C(=O)[C@H](Cc1ccccc1)NC(=O)[C@H](CO)NC(=O)[C@H](CO)NC(=O)[C@H](CO)NC(=O)[C@H](CO)NC(=O)[C@H](CCCNC(=N)N)NC(=O)[C@H](Cc1c[nH]cn1)NC(=O)[C@H](CC(C)C)NC(=O)[C@H](Cc1ccccc1)NC(=O)[C@H](CCC(=O)O)NC(=O)[C@H](C)NC(=O)[C@H](CC(C)C)NC(=O)[C@H](CCCNC(=N)N)NC(=O)[C@H](CCC(=O)O)NC(=O)[C@@H](NC(=O)[C@H](C)NC(=O)[C@@H]1CSSC[C@H](NC(=O)[C@H](CCCNC(=N)N)NC(=O)CC[C@H](NC(=O)CCCCCCCCCCCCCCCCCCC(=O)O)C(=O)O)C(=O)N[C@@H](CO)C(=O)N[C@@H]([C@@H](C)O)C(=O)N[C@@H](C)C(=O)N[C@@H]([C@@H](C)O)C(=O)N1)[C@@H](C)O [Compound 135, [19CD]-isoGlu-RC()STATC()ATERLAEFLHRSSSSF-Gly(Me)-A-Ile(Me)-LSSTEVGSETP-NH2] ({C20 diacid-γGlu}-RCSTATCATERLAEFLHRSSSSF[Sar]A[NMeI]LSSTEVGSETP-NH2; disulfide 2-7)
0.29 | SS (SS indicates solubility ≥ 1mg/ml) | SS (SS indicates solubility ≥ 1mg/ml) | SS (SS indicates solubility ≥ 1mg/ml) | SS (SS indicates solubility ≥ 1mg/ml) | SS (SS indicates solubility ≥ 1mg/ml) | SS (SS indicates solubility ≥ 1mg/ml) | SS (SS indicates solubility ≥ 1mg/ml) | 0.12 | CC[C@H](C)[C@@H](C(=O)N[C@@H](CC(C)C)C(=O)N[C@@H](CO)C(=O)N[C@@H](CO)C(=O)N[C@H](C(=O)N[C@@H](CCC(=O)O)C(=O)N[C@H](C(=O)NCC(=O)N[C@@H](CO)C(=O)N[C@@H](CCC(=O)O)C(=O)N[C@H](C(=O)N1CCC[C@H]1C(N)=O)[C@@H](C)O)C(C)C)[C@@H](C)O)N(C)C(=O)[C@H](C)NC(=O)CN(C)C(=O)[C@H](Cc1ccccc1)NC(=O)[C@H](CO)NC(=O)[C@H](CO)NC(=O)[C@H](CO)NC(=O)[C@H](CO)NC(=O)[C@H](CCCNC(=N)N)NC(=O)[C@H](Cc1c[nH]cn1)NC(=O)[C@H](CC(C)C)NC(=O)[C@H](Cc1ccccc1)NC(=O)[C@H](CCC(=O)O)NC(=O)[C@H](C)NC(=O)[C@H](CC(C)C)NC(=O)[C@H](CCCNC(=N)N)NC(=O)[C@H](CCC(=O)O)NC(=O)[C@@H](NC(=O)[C@H](C)NC(=O)[C@@H]1CSSC[C@H](NC(=O)[C@H](CCCNC(=N)N)NC(=O)CC[C@H](NC(=O)CCCCCCCCCCCCCCCCCCC(=O)O)C(=O)O)C(=O)N2CCC[C@H]2C(=O)N[C@@H]([C@@H](C)O)C(=O)N[C@@H](C)C(=O)N[C@@H]([C@@H](C)O)C(=O)N1)[C@@H](C)O [Compound 136, [19CD]-isoGlu-RC()PTATC()ATERLAEFLHRSSSSF-Gly(Me)-A-Ile(Me)-LSSTEVGSETP-NH2] ({C20 diacid-γGlu}-RCPTATCATERLAEFLHRSSSSF[Sar]A[NMeI]LSSTEVGSETP-NH2; disulfide 2-7)
0.86 | SS (SS indicates solubility ≥ 1mg/ml) | SS (SS indicates solubility ≥ 1mg/ml) | SS (SS indicates solubility ≥ 1mg/ml) | SS (SS indicates solubility ≥ 1mg/ml) | SS (SS indicates solubility ≥ 1mg/ml) | SS (SS indicates solubility ≥ 1mg/ml) | SS (SS indicates solubility ≥ 1mg/ml) | 0.24 | CC[C@H](C)[C@@H](C(=O)N[C@@H](CC(C)C)C(=O)N[C@@H](CO)C(=O)N[C@@H](CO)C(=O)N[C@H](C(=O)N[C@@H](CCC(=O)O)C(=O)N[C@H](C(=O)NCC(=O)N[C@@H](CO)C(=O)N[C@@H](CCC(=O)O)C(=O)N[C@H](C(=O)N1CCC[C@H]1C(N)=O)[C@@H](C)O)C(C)C)[C@@H](C)O)N(C)C(=O)[C@H](C)NC(=O)CN(C)C(=O)[C@H](Cc1ccccc1)NC(=O)[C@H](CO)NC(=O)[C@H](CO)NC(=O)[C@H](CO)NC(=O)[C@H](CO)NC(=O)[C@H](CCCNC(=N)N)NC(=O)[C@H](Cc1c[nH]cn1)NC(=O)[C@H](CC(C)C)NC(=O)[C@H](Cc1ccccc1)NC(=O)[C@H](CCC(=O)O)NC(=O)[C@H](C)NC(=O)[C@H](CC(C)C)NC(=O)[C@H](CCCNC(=N)N)NC(=O)[C@H](CCC(=O)O)NC(=O)[C@@H](NC(=O)[C@H](C)NC(=O)[C@@H]1CSSC[C@H](NC(=O)[C@H](CCCNC(=N)N)NC(=O)CC[C@H](NC(=O)CCCCCCCCCCCCCCCCCCC(=O)O)C(=O)O)C(=O)N[C@@H](CC(=O)O)C(=O)N[C@@H]([C@@H](C)O)C(=O)N[C@@H](C)C(=O)N[C@@H]([C@@H](C)O)C(=O)N1)[C@@H](C)O [Compound 137, [19CD]-isoGlu-RC()DTATC()ATERLAEFLHRSSSSF-Gly(Me)-A-Ile(Me)-LSSTEVGSETP-NH2] ({C20 diacid-γGlu}-RCDTATCATERLAEFLHRSSSSF[Sar]A[NMeI]LSSTEVGSETP-NH2; disulfide 2-7)
0.34 | SS (SS indicates solubility ≥ 1mg/ml) | SS (SS indicates solubility ≥ 1mg/ml) | SS (SS indicates solubility ≥ 1mg/ml) | SS (SS indicates solubility ≥ 1mg/ml) | SS (SS indicates solubility ≥ 1mg/ml) | SS (SS indicates solubility ≥ 1mg/ml) | SS (SS indicates solubility ≥ 1mg/ml) | 0.23 | CC[C@H](C)[C@@H](C(=O)N[C@@H](CC(C)C)C(=O)N[C@@H](CO)C(=O)N[C@@H](CO)C(=O)N[C@H](C(=O)N[C@@H](CCC(=O)O)C(=O)N[C@H](C(=O)NCC(=O)N[C@@H](CO)C(=O)N[C@@H](CCC(=O)O)C(=O)N[C@H](C(=O)N1CCC[C@H]1C(N)=O)[C@@H](C)O)C(C)C)[C@@H](C)O)N(C)C(=O)[C@H](C)NC(=O)CN(C)C(=O)[C@H](Cc1ccccc1)NC(=O)[C@H](CO)NC(=O)[C@H](CO)NC(=O)[C@H](CO)NC(=O)[C@H](CO)NC(=O)[C@H](CCCNC(=N)N)NC(=O)[C@H](Cc1c[nH]cn1)NC(=O)[C@H](CC(C)C)NC(=O)[C@H](Cc1ccccc1)NC(=O)[C@H](CCC(=O)O)NC(=O)[C@H](C)NC(=O)[C@H](CC(C)C)NC(=O)[C@H](CCCNC(=N)N)NC(=O)[C@H](CO)NC(=O)[C@@H](NC(=O)[C@H](C)NC(=O)[C@@H]1CSSC[C@H](NC(=O)[C@H](CCCNC(=N)N)NC(=O)CC[C@H](NC(=O)CCCCCCCCCCCCCCCCCCC(=O)O)C(=O)O)C(=O)N[C@@H](CC(=O)O)C(=O)N[C@@H]([C@@H](C)O)C(=O)N[C@@H](C)C(=O)N[C@@H]([C@@H](C)O)C(=O)N1)[C@@H](C)O [Compound 138, [19CD]-isoGlu-RC()DTATC()ATSRLAEFLHRSSSSF-Gly(Me)-A-Ile(Me)-LSSTEVGSETP-NH2] ({C20 diacid-γGlu}-RCDTATCATSRLAEFLHRSSSSF[Sar]A[NMeI]LSSTEVGSETP-NH2; disulfide 2-7)
